From US20210253520A1, “POLYMYXIN-BASED COMPOUNDS USEFUL AS ANTIBACTERIAL AGENTS” (UNIVERSITAT DE BARCELONA, priority 2018, published 2021)
≈ marks a conversion by molar mass, not a printed value. Where two headings read alike, the source gives them in different places. Values belong to the molecule of their own block, whether it stands above or below them. Numbered stars: 1 amine (or outer) side, 2 acyl side, 3 side chain; on linkers, the order of the positions; unused ones are H or OH. Bridge positions count the residues as written; N and C are the ends. Square brackets hold non-standard residues; d marks the D form. Peptide text beside a SMILES is read from it. * marks the point of attachment. X1 = C[C@@H](O)[C@@H](CS[*:1])N[*:2]; dGly(nOct) = CCCCCCCC[C@@H](N)C(=O)O; Hica(2S) = CC(C)C[C@H](O)C(=O)O; Octanoyl = CCCCCCCC(=O)*; Dab = NCC[C@H](N)C(=O)O

Assays:
Swiss CD-1 female mice = experiment: Nephrotoxicity study, histopathological scoring of kidney lesions; assay type: in vivo; design: key to Group Score (GS): mean of per-animal summed 0-4 lesion scores; higher = more nephrotoxic; key to Animal Score (AS), Partial AS: sum of 0-4 lesion parameter scores; higher = more nephrotoxic; conditions: for Animal Score (AS), Partial AS: sum over all mice
Method: Swiss CD-1 female mice weighing approximately 20-24 g (JANVIER Labs) were used, housed in an individually ventilated cage system under specific pathogen-free conditions, and water and food supplied ad libitum. This study plan and the conduct of the study were subjected to review by the Scientific Park of Barcelona Ethical Review Process with the current study procedure Code CEEA (AR) 9377-P2. Mice were administered at a dose of 12 mg/Kg every 2 hours for a total of 6 administrations (total dose 72 mg/Kg), unless otherwise stated. After 20 h, animals were anesthesized with isoflurane, kidneys extracted and prepared for histopathological evaluation, and finally animales were sacrificed. Kidney lesions (tubule dilation, necrosis, tubule casts, cell vacuolization, cell desquamation, and cell swelling) were quantified by microscopical observation (see for instance, Roberts, ACS Infect. Dis., 2015, 1, 568). Each one of these parameters was scored with values from 0 to 4 for each animal, as a global result of observations in kidney. Partial scores have been added up to obtain a final score for each animal (Animal Score, AS). The mean of animal score has been obtained to define the Group Score (GS). The higher the score, the more nephrotoxic a compound is. The nephrotoxicity score has been determined as according to the following table of approximated values: […]

E. coli MB1410 = experiment: microbe, parasite or virus in culture; assay type: cell-based; conditions: for MIC: Escherichia coli, resistance profile of strain E. coli MB1410, Table 3, read-out: MIC; for antibacterial activity (MIC): MB1410
Method: (§1) The antibacterial activity of the polymyxin lipopeptides was measured at ISGlobal following the microdilution test to determine the Minimal Inhibitory Concentrations (MIC) in sterile 96-well polypropilene plates. The concentration range was 32 a […] in Iso-Sensitest broth (Oxoid, ThermoFisher). The results were carried out in triplicate and the highest MIC is the one shown. Bacterial strains were grown in blood agar plates at 37° C. for 17 h. Fresh colonies were used to prepare a McFarland 0.5 solution that was finally added to the plates at 1 to 100 dilution
(§2) Samples of sensitive and multi-drug resistant bacteria were: E. coli ATCC 25922 E. coli MB1410; K. pneumoniae MB674; P. aeruginosa ATCC 27853; P. aeruginosa 36A.

P. aeruginosa 36A = experiment: microbe, parasite or virus in culture; assay type: cell-based; conditions: for antibacterial activity (MIC): 36A
Method: as §1, §2

P. aeruginosa ATCC 27853 = experiment: microbe, parasite or virus in culture; assay type: cell-based; conditions: for MIC: resistance profile of strain P. aeruginosa ATCC 27853, Table 3; for antibacterial activity (MIC): ATCC 27853
Method: as §1, §2

E. coli ATCC 25922 = experiment: microbe, parasite or virus in culture; assay type: cell-based; conditions: for antibacterial activity (MIC): ATCC 25922
Method: as §1, §2

K. pneumoniae MB674 = assay type: cell-based; conditions: MB674
Method: as §1, §2

[1] = Table 8, 12 mg/Kg every 2 hours × 6 sc, total 72 mg/Kg, 3 mice
[2] = Pseudomonas aeruginosa, ATCC27853, read-out: MIC
[3] = Escherichia coli, ATCC25922, resistance profile of strain E. coli ATCC 25922, Table 3, read-out: MIC
[4] = Table 6, 12 mg/Kg every 2 hours × 6, subcutaneous, total 72 mg/Kg
[5] = Table 6, mean of animal scores, 12 mg/Kg every 2 hours × 6, subcutaneous, total 72 mg/Kg
[6] = Table 6, sum of mouse scores, 12 mg/Kg every 2 hours × 6, subcutaneous, total 72 mg/Kg
[7] = Table 7, 8 mg/Kg every 2 hours × 6, total 48 mg/Kg

Molecule: Nonanoyl-Dab-Thr-Dab-cyclo(S-S)[Cys-Dab-DPhe-Leu-Dab-Dab-Cys] [compound 1]
AS, Partial AS (Swiss CD-1 female mice; [1]): 12 | Cell vacuolization, Partial AS (Swiss CD-1 female mice; [1]): 0 | Cloudy swelling, Partial AS (Swiss CD-1 female mice; [1]): 6 | Group Score (GS) (Swiss CD-1 female mice; [1]): 4 | Mice found dead (Swiss CD-1 female mice; [1]): none | Tubular casts, Partial AS (Swiss CD-1 female mice; [1]): 0 | Tubular dilaion, Partial AS (Swiss CD-1 female mice; [1]): 6 | Tubular necrosis, Partial AS (Swiss CD-1 female mice; [1]): 0 | nephrotoxicity in mice, in words (Swiss CD-1 female mice; nephrotoxicity tests carried out in mice, statement of the background): showed nephrotoxicity

Molecule: C[C@H]1COc2c(N3CCN(C)CC3)c(F)cc3c(=O)c(C(=O)O)cn1c23 [Lev, Levofloxacin]
MIC (P. aeruginosa ATCC 27853; [2]): 1.5 µg/mL (≈ 4.15 µM) | MIC (E. coli ATCC 25922; [3]): 0.094 µg/mL (≈ 0.26 µM)

Molecule: CCCCCCCC[C@@H](N)C(=O)N[C@H](C(=O)N[C@@H](CCN)C(=O)N[C@H]1CSSC[C@H]([C@@H](C)O)NC(=O)[C@H](CCN)NC(=O)[C@H](CCN)NC(=O)[C@H](CC(C)C)OC(=O)[C@@H](CC(C)C)NC(=O)[C@H](CCN)NC1=O)[C@@H](C)O [Example 8, DAdec-Thr-Dab-cyclo(S-S)[Cys-Dab-DLeu-OLe-Dab-Dab-Ttr]] (H-[dGly(nOct)]T[Dab]C[Dab][dL][Hica(2S)][Dab][Dab]; linker 4-C via X1)
Mice found dead (Swiss CD-1 female mice; [4]): None | Group Score (GS) (Swiss CD-1 female mice; [5]): 0 | Cell desquamation, Partial AS (Swiss CD-1 female mice; [6]): 0 | Cell vacuolization, Partial AS (Swiss CD-1 female mice; [6]): 0 | Cloudy swelling, Partial AS (Swiss CD-1 female mice; [6]): 0 | Tubular casts, Partial AS (Swiss CD-1 female mice; [6]): 0 | Tubular dilation, Partial AS (Swiss CD-1 female mice; [6]): 0 | Tubular necrosis, Partial AS (Swiss CD-1 female mice; [6]): 0 | Animal Score (AS), Partial AS (Swiss CD-1 female mice; [4]): 0 | antibacterial activity (MIC) (E. coli MB1410): 1 µg/mL | antibacterial activity (MIC) (P. aeruginosa 36A): 1 µg/mL | antibacterial activity (MIC) (P. aeruginosa ATCC 27853): 2 µg/mL | antibacterial activity (MIC) (E. coli ATCC 25922): 2 µg/mL | antibacterial activity (MIC) (K. pneumoniae MB674): 1 µg/mL

Molecule: C[C@@H](O)[C@H]1C(=O)N2C(C(=O)O)=C(S[C@@H]3CN[C@H](C(=O)N(C)C)C3)[C@H](C)[C@H]12 [MP, Meropenem]
MIC (E. coli MB1410): 0.094 µg/mL (≈ 0.245 µM) | MIC (P. aeruginosa ATCC 27853; [2]): 0.38 µg/mL (≈ 0.991 µM) | MIC (E. coli ATCC 25922; Escherichia coli, ATCC25922): 0.125 µg/mL (≈ 0.326 µM)

Molecule: CCCCCCCC[C@@H](N)C(=O)N[C@H](C(=O)N[C@@H](CCN)C(=O)N[C@H]1CSSC[C@H]([C@@H](C)O)NC(=O)[C@H](CCN)NC(=O)[C@H](CCN)NC(=O)[C@H](CC(C)C)NC(=O)[C@@H](Cc2ccccc2)NC(=O)[C@H](CCN)NC1=O)[C@@H](C)O [Example 5, DAdec-Thr-Dab-cyclo(S-S)[Cys-Dab-DPhe-Leu-Dab-Dab-Ttr]] (H-[dGly(nOct)]T[Dab]C[Dab][dF]L[Dab][Dab]; linker 4-C via X1; N-terminus assumed)
Mice found dead (Swiss CD-1 female mice; [4]): None | Group Score (GS) (Swiss CD-1 female mice; [5]): 0.4 | Cell desquamation, Partial AS (Swiss CD-1 female mice; [6]): 0 | Cell vacuolization, Partial AS (Swiss CD-1 female mice; [6]): 0 | Cloudy swelling, Partial AS (Swiss CD-1 female mice; [6]): 3 | Tubular casts, Partial AS (Swiss CD-1 female mice; [6]): 0 | Tubular dilation, Partial AS (Swiss CD-1 female mice; [6]): 0 | Tubular necrosis, Partial AS (Swiss CD-1 female mice; [6]): 0 | Animal Score (AS), Partial AS (Swiss CD-1 female mice; [4]): 3 | AS, Partial AS (Swiss CD-1 female mice; [7]): 0 | Cell vacuolization, Partial AS (Swiss CD-1 female mice; [7]): 0 | Cloudy swelling, Partial AS (Swiss CD-1 female mice; [7]): 0 | Group Score (GS) (Swiss CD-1 female mice; [7]): 0 | Mice found dead (Swiss CD-1 female mice; [7]): None | Tubular casts, Partial AS (Swiss CD-1 female mice; [7]): 0 | Tubular dilation, Partial AS (Swiss CD-1 female mice; [7]): 0 | Tubular necrosis, Partial AS (Swiss CD-1 female mice; [7]): 0 | antibacterial activity (MIC) (E. coli MB1410): 1 µg/mL | antibacterial activity (MIC) (P. aeruginosa 36A): 2 µg/mL | antibacterial activity (MIC) (P. aeruginosa ATCC 27853): 2 µg/mL | antibacterial activity (MIC) (E. coli ATCC 25922): 1 µg/mL | antibacterial activity (MIC) (K. pneumoniae MB674): 1 µg/mL

The remaining lines, values ahead:

MIC (E. coli MB1410): 6 µg/mL (≈ 10.2 µM) | MIC (P. aeruginosa 36A; Pseudomonas aeruginosa, resistance profile of strain P. aeruginosa 36A, Table 3, read-out: MIC): 2 µg/mL (≈ 3.42 µM) | MIC (P. aeruginosa ATCC 27853; [2]): 4 µg/mL (≈ 6.83 µM) | MIC (E. coli ATCC 25922; [3]): 2 µg/mL (≈ 3.42 µM)
Molecule: NCC[C@H](O)C(=O)N[C@@H]1C[C@H](N)[C@@H](O[C@H]2O[C@H](CN)[C@@H](O)[C@H](O)[C@H]2O)[C@H](O)[C@H]1O[C@H]1O[C@H](CO)[C@@H](O)[C@H](N)[C@H]1O [Ak, Amikacin]

antibacterial activity (MIC) (E. coli MB1410): 4 µg/mL | antibacterial activity (MIC) (P. aeruginosa 36A): 4 µg/mL | antibacterial activity (MIC) (P. aeruginosa ATCC 27853): 2 µg/mL | antibacterial activity (MIC) (E. coli ATCC 25922): 8 µg/mL | antibacterial activity (MIC) (K. pneumoniae MB674): 1 µg/mL
Molecule: CCCCCCCC(=O)N[C@@H](CCN)C(=O)N[C@H](C(=O)N[C@@H](CCN)C(=O)N[C@H]1CSSC[C@H]([C@@H](C)O)NC(=O)[C@H](CCN)NC(=O)[C@H](CCN)NC(=O)[C@H](CC(C)C)OC(=O)[C@@H](CC(C)C)NC(=O)[C@H](CCN)NC1=O)[C@@H](C)O [Example 7, Octanoyl-Dab-Thr-Dab-cyclo(S-S)[Cys-Dab-DLeu-OLe-Dab-Dab-Ttr]] (Octanoyl-[Dab]T[Dab]C[Dab][dL][Hica(2S)][Dab][Dab]; linker 4-C via X1)

MIC (P. aeruginosa ATCC 27853): 0.5 µg/mL (≈ 0.915 µM) | MIC (E. coli ATCC 25922; resistance profile of strain E. coli ATCC 25922, Table 3): 0.25 µg/mL (≈ 0.457 µM)
Molecule: CC(C)(O/N=C(\C(=O)N[C@@H]1C(=O)N2C(C(=O)[O-])=C(C[n+]3ccccc3)CS[C@H]12)c1csc(N)n1)C(=O)O [CAZ, Ceftacidime]
